According to ChEMBL document CHEMBL1143282, “Synthesis and evaluation of photoreactive probes to elucidate iodide efflux in thyrocytes” (Bioorg Med Chem Lett, 2009):
pEC50: −log10 of the molar value. The source made the active and inactive calls. The rule behind the calls is not given here.

How the values were obtained:
[1] = tested on: FRTL-5; test: Iodide sequestering activity in rat FRTL5 cells assessed as enhancement of intracellular iodide entrapment at 200 uM after 120 mins in dark by scintillation counting relative to sodium perchlorate; format: functional
[2] = tested on: FRTL-5; test: Iodide sequestering activity in rat FRTL5 cells assessed as enhancement of intracellular iodide entrapment after 120 mins in dark by scintillation counting; format: functional, cell-based; details: for pEC50: FRTL-5, 2 h
[3] = Chemical stability assessed as photodecomposition-associated half life in MeCN using UV lamp; format: physicochemical; details: MeCN solution irradiated with UV lamp
[4] = tested on: FRTL-5; test: Iodide sequestering activity in rat FRTL5 cells assessed as enhancement of intracellular iodide entrapment at 50 uM after 120 mins in dark by scintillation counting relative to sodium perchlorate; format: functional
[5] = tested on: FRTL-5; test: Iodide sequestering activity in rat FRTL5 cells assessed as enhancement of intracellular iodide entrapment at 0.1 to 200 uM after 120 mins in dark by scintillation counting; format: functional, cell-based
[6] = Chemical stability in MeCN/H2O at 4mCi/mL; format: physicochemical
[7] = tested on: FRTL-5; test: Iodide sequestering activity in rat FRTL5 cells assessed as enhancement of intracellular iodide entrapment at 20 uM after 120 mins in dark by scintillation counting relative to sodium perchlorate; format: functional

| pEC50 [2] | SMILES | Activity [5] | further results |
| --- | --- | --- | --- |
| 4.30 | O=C(c1ccccc1)c1ccc(C2=CSC3=NCCN23)cc1 | Active | fold change (FC) [1]: 2.5; Activity [2]: Dose-dependent effect; half-life [3]: 12 min; fold change (FC) [4]: 1.8 |
|  | [3H]C1=C(c2ccc(C(=O)c3ccccc3)cc2)N2CCN=C2S1 |  | Stability [6]: 6 months |
|  | FC(F)(F)C1(c2ccc(C3=CSC4=NCCN34)cc2)N=N1 | inactive |  |
| 4.70 | C1=C(c2ccc(-c3ccccc3)cc2)N2CCN=C2S1 |  | fold change (FC) [7]: 2.5 |
|  | N#[N+]c1ccc(-c2ccc(C3=CSC4=NCCN34)cc2)cc1 | inactive |  |
|  | [N-]=[N+]=Nc1ccc(-c2ccc(C3=CSC4=NCCN34)cc2)cc1 | inactive |  |
